Laboratory results as given in the NIST ThermoML archive (doi:10.1021/je030163d).
Numbers after ± are expanded uncertainties.

Experiment: xn = mol fraction of the nth substance listed
Conditions: 101.3 kPa, Liquid; for viscosity: Capillary tube (Ostwald / Ubbelohde) method; for mass density: Pycnometric method

CC(=O)c1ccccc1 [acetophenone] + CN(C)C=O
Conditions	mass density, 298.15 K [kg/m3]	mass density, 303.15 K [kg/m3]	mass density, 308.15 K [kg/m3]	mass density, 313.15 K [kg/m3]	viscosity, 298.15 K [mPa·s]	viscosity, 303.15 K [mPa·s]	viscosity, 308.15 K [mPa·s]	viscosity, 313.15 K [mPa·s]
x2 = 0	1024.1 ± 0.6	1019.9 ± 0.6	1015.7 ± 0.6	1011.2 ± 0.6	1.68 ± 0.013	1.54 ± 0.012	1.41 ± 0.011	1.31 ± 0.01
x2 = 0.1123	1018 ± 0.5	1013.9 ± 0.6	1009.7 ± 0.6	1005.2 ± 0.6	1.584 ± 0.012	1.453 ± 0.011	1.33 ± 0.01	1.238 ± 0.009
x2 = 0.1641	1015.6 ± 0.5	1011.4 ± 0.5	1007.2 ± 0.5	1002.7 ± 0.5	1.544 ± 0.012	1.418 ± 0.011	1.299 ± 0.01	1.206 ± 0.009
x2 = 0.308	1008.8 ± 0.5	1004.6 ± 0.5	1000.4 ± 0.5	995.9 ± 0.5	1.43 ± 0.01	1.314 ± 0.01	1.205 ± 0.009	1.123 ± 0.008
x2 = 0.4328	1001 ± 0.5	996.8 ± 0.5	992.5 ± 0.5	988 ± 0.5	1.328 ± 0.009	1.221 ± 0.009	1.122 ± 0.008	1.047 ± 0.008
x2 = 0.5286	994.2 ± 0.4	989.9 ± 0.4	985.6 ± 0.5	981.1 ± 0.5	1.246 ± 0.009	1.148 ± 0.008	1.056 ± 0.008	0.987 ± 0.007
x2 = 0.6256	985.8 ± 0.4	981.4 ± 0.4	977.1 ± 0.4	972.5 ± 0.4	1.156 ± 0.008	1.069 ± 0.008	0.984 ± 0.007	0.922 ± 0.007
x2 = 0.7165	977.2 ± 0.4	972.8 ± 0.4	968.4 ± 0.4	963.8 ± 0.4	1.072 ± 0.008	0.995 ± 0.007	0.918 ± 0.007	0.862 ± 0.006
x2 = 0.7943	969 ± 0.4	964.5 ± 0.4	960 ± 0.4	955.3 ± 0.4	0.999 ± 0.007	0.93 ± 0.007	0.861 ± 0.006	0.81 ± 0.006
x2 = 0.9378	952.5 ± 0.3	947.9 ± 0.4	943.3 ± 0.4	938.5 ± 0.4	0.863 ± 0.006	0.809 ± 0.006	0.755 ± 0.006	0.714 ± 0.006

OCc1ccccc1 [benzenemethanol] + CN(C)C=O
Conditions	mass density, 298.15 K [kg/m3]	mass density, 303.15 K [kg/m3]	mass density, 308.15 K [kg/m3]	mass density, 313.15 K [kg/m3]	viscosity, 298.15 K [mPa·s]	viscosity, 303.15 K [mPa·s]	viscosity, 308.15 K [mPa·s]	viscosity, 313.15 K [mPa·s]
x2 = 0	1041.3 ± 0.4	1037.5 ± 0.4	1033.7 ± 0.4	1029.4 ± 0.4	5.16 ± 0.031	4.67 ± 0.028	4.004 ± 0.024	3.52 ± 0.021
x2 = 0.1088	1036.1 ± 0.4	1032.3 ± 0.4	1028.5 ± 0.4	1024.3 ± 0.4	4.473 ± 0.027	4.06 ± 0.025	3.51 ± 0.021	3.106 ± 0.019
x2 = 0.1712	1032.5 ± 0.4	1028.7 ± 0.4	1024.9 ± 0.4	1020.6 ± 0.4	4.011 ± 0.024	3.648 ± 0.022	3.17 ± 0.019	2.817 ± 0.017
x2 = 0.3055	1022.7 ± 0.4	1018.8 ± 0.4	1014.9 ± 0.4	1010.6 ± 0.4	3.14 ± 0.019	2.87 ± 0.018	2.517 ± 0.016	2.26 ± 0.014
x2 = 0.4003	1014.8 ± 0.4	1010.8 ± 0.4	1006.8 ± 0.4	1002.4 ± 0.4	2.59 ± 0.016	2.378 ± 0.015	2.1 ± 0.013	1.9 ± 0.012
x2 = 0.5393	1001.3 ± 0.4	997.2 ± 0.4	993.1 ± 0.4	988.7 ± 0.4	2.02 ± 0.013	1.86 ± 0.012	1.67 ± 0.011	1.52 ± 0.01
x2 = 0.5865	996.1 ± 0.4	992 ± 0.4	987.9 ± 0.4	983.4 ± 0.4	1.85 ± 0.012	1.71 ± 0.011	1.541 ± 0.01	1.411 ± 0.009
x2 = 0.717	980.7 ± 0.3	976.4 ± 0.4	972.1 ± 0.4	967.6 ± 0.4	1.44 ± 0.009	1.335 ± 0.009	1.218 ± 0.008	1.127 ± 0.008
x2 = 0.7962	970.3 ± 0.3	965.9 ± 0.3	961.5 ± 0.4	956.9 ± 0.4	1.23 ± 0.008	1.146 ± 0.008	1.054 ± 0.007	0.982 ± 0.007
x2 = 0.8972	957.6 ± 0.3	953.1 ± 0.3	948.7 ± 0.4	944 ± 0.4	1.001 ± 0.007	0.938 ± 0.007	0.872 ± 0.006	0.819 ± 0.006
